Consider one compound from patent US20120309798A1, “Tumour Treatment Agents and Method” (Vivolux AB, priority 2009, published 2012).

The subject of data set [1] is ALL (Acute Lymphocytic Leukemia) patient tumor cells. Kind of data set: Fluorometric Microculture Cytotoxicity Assay (FMCA), patient tumor samples, ALL. Format: cell-based. The following applies: Homo sapiens, range over n=21 samples. From the text:
(§1) Cell culture. Patient tumor samples (98) and preparations (4) of normal peripheral blood mononuclear cells (PBMC), detailed in Table 1, were used to determine the activity of VLX50 and, for comparison, six other cytotoxic drugs chosen to represent different mechanistic classes.
(§2) The tumor samples were obtained by bone marrow/peripheral blood sampling, routine surgery or diagnostic biopsy. Leukemic cells and PBMCs were isolated by 1.077 g ml-1 Ficoll-Paque centrifugation (Larsson et al., 1992). Tumor tissue from solid tumor samples was minced into small pieces and tumor cells were isolated by collagenase dispersion followed by Percoll density gradient centrifugation (Csoka et al., 1994). […] Cell viability was determined by trypan blue exclusion test and the proportion of tumor cells in the preparation was judged by inspection of May-Grunvald-Giemsa stained cytospin slides (FIG. 1a). […]
(§3) Fluorometric Microculture Cytotoxicity Assay. The Fluorometric Microculture Cytotoxicity Assay, FMCA, described in detail previously (Lindhagen et al., 2008), is based on measurement of fluorescence generated from hydrolysis of fluorescein diacetate (FDA) to fluorescein by cells with intact plasma membranes. […] Quality criteria for a successful assay included a mean coefficient of variation of less than 30% in the control and a fluorescence signal in control wells of more than 5 times the blank. […]

The test system of data set [2] is AML (Acute Myelocytic Leukemia) patient tumor cells. As to the kind of experiment: FMCA, patient tumor samples, AML. Format: cell-based. The following applies: Homo sapiens.
Description: as §1, §2, §3

Data set [3] has as its system NHL (Non-Hodgkins Lymphoma) patient tumor cells. As to the kind of experiment: FMCA, patient tumor samples, NHL. The following applies: Homo sapiens, range over n=13 samples. The class given is cell-based.
Description: as §1, §2, §3

Data set [4] deals with Breast cancer patient tumor cells. As to the kind of experiment: FMCA, patient tumor samples, breast cancer. Format: cell-based. The following applies: Homo sapiens.
Description: as §1, §2, §3

Data set [5] relates to Ovarian carcinoma patient tumor cells (PHTC). As to the kind of experiment: FMCA, patient tumor samples, ovarian carcinoma. The class given is cell-based, human.
Description: as §1
(§4) The tumor samples were obtained by bone marrow/peripheral blood sampling, routine surgery or diagnostic biopsy. Leukemic cells and PBMCs were isolated by 1.077 g ml-1 Ficoll-Paque centrifugation (Larsson et al., 1992). Tumor tissue from solid tumor samples was minced into small pieces and tumor cells were isolated by collagenase dispersion followed by Percoll density gradient centrifugation (Csoka et al., 1994). The sampling of primary tumor cells was approved by the local ethics committee at Uppsala University Hospital. Cell viability was determined by trypan blue exclusion test and the proportion of tumor cells in the preparation was judged by inspection of May-Grunvald-Giemsa stained cytospin slides (FIG. 1a). All samples used in this study contained more than 70% tumor cells.
Fluorometric Microculture Cytotoxicity Assay. The Fluorometric Microculture Cytotoxicity Assay, FMCA, described in detail previously (Lindhagen et al., 2008), is based on measurement of fluorescence generated from hydrolysis of fluorescein diacetate (FDA) to fluorescein by cells with intact plasma membranes. […] The plates were incubated for 72 h and then transferred to an integrated HTS SAIGAN Core System consisting of an ORCA robot (Beckman Coulter) with CO2 incubator (Cytomat 2C, Kendro, Sollentuna, Sweden), dispensor module (Multidrop 384, Titertek, Huntsville, Ala.), washer module (ELx 405, Bio-Tek Instruments Inc), delidding station, plate hotels, barcode reader (Beckman Coulter), liquid handler (Biomek 2000, Beckman Coulter) and a multipurpose reader (FLUOstar Optima, BMG Labtech GmbH, Offenburg, Germany) for automated FMCA. Quality criteria for a successful assay included a mean coefficient of variation of less than 30% in the control and a fluorescence signal in control wells of more than 5 times the blank. […]

In data set [6] the test system is solid and hematological patient tumor samples. Kind of data set: Relative effect on solid and hematological tumor samples (S/H ratio), FMCA. The following applies: n=98 patient samples; FIG. 2b. The class given is cell-based, human.
Description: as §1, §2, §3

Data set [7] deals with cells from CLL and normal PBMC. As to the kind of experiment: Tumor cell specificity: drug effect in CLL cells versus normal PBMC, FMCA. Format: cell-based, human. The following applies: PBMC n=4, CLL n=9; FIG. 2c.
Description: as §1, §4
Fluorometric Microculture Cytotoxicity Assay. The Fluorometric Microculture Cytotoxicity Assay, FMCA, described in detail previously (Lindhagen et al., 2008), is based on measurement of fluorescence generated from hydrolysis of fluorescein diacetate (FDA) to fluorescein by cells with intact plasma membranes. Cells were seeded in the drug-prepared 384-well plates using the pipetting robot Precision 2000 (Bio-Tek Instruments Inc., Winooski, Vt.). The number of cells per well were 2500-5000. Two columns without drugs served as controls and one column with medium only served as blank. The plates were incubated for 72 h and then transferred to an integrated HTS SAIGAN Core System consisting of an ORCA robot (Beckman Coulter) with CO2 incubator (Cytomat 2C, Kendro, Sollentuna, Sweden), dispensor module (Multidrop 384, Titertek, Huntsville, Ala.), washer module (ELx 405, Bio-Tek Instruments Inc), delidding station, plate hotels, barcode reader (Beckman Coulter), liquid handler (Biomek 2000, Beckman Coulter) and a multipurpose reader (FLUOstar Optima, BMG Labtech GmbH, Offenburg, Germany) for automated FMCA. Quality criteria for a successful assay included a mean coefficient of variation of less than 30% in the control and a fluorescence signal in control wells of more than 5 times the blank.
Dose-response data were analyzed using calculated survival index values and the software program GraphPadPrism4 (GraphPad Software Inc., San Diego, Calif., USA). Data was processed using non-linear regression to a standard sigmoidal dose-response model to obtain IC50-values (inhibitory concentration 50%).
In FIG. 2a the response rates for VLX50 at 4 μM for the patient samples are listed according to diagnoses. […] Lung cancer, AML and CML had intermediate response rates. The relative effect of VLX50 and six standard cytotoxic drugs, in solid and hematological tumor samples, expressed as the S/H ratio, is shown in FIG. 2b. […] The results for the standard drugs are consistent with their main clinical use.

For the next data set, the system named is CCRF-CEM cell line. As to the kind of experiment: In vivo hollow fiber assay, CCRF-CEM. The following applies: CCRF-CEM in fibers s.c. in NMRI male mice, single dose 760 μg/mouse s.c., 6 days; P>0.05. As to the method:
In vivo studies. Cells from two ovarian carcinoma patients and the cell line CEM were cultured inside semi-permeable polyvinylidene fluoride fibers and assessed by the hollow fiber assay (Friberg et al., 2005; Jonsson et al., 2000). The fibers were implanted subcutaneously into NMRI male mice (Scanbur, Sollentuna Sweden), which were treated with a single dose (0.76 mg/mouse) of VLX50 subcutaneously, or vehicle only (n=animals/group). Fibers were retrieved after 6 days and cell density evaluated (FIG. 3a) using the MTT (3-[4,5-dimethylthiazol-2-yl]-2,5-diphenyltetrazolium bromide)-assay (Alley et al. 1988). The method is based on the conversion of MTT to blue formazan crystals by living cells. The formazan was extracted by DMSO as previously described (Jonsson et al. 2000), and optical density (OD) read at 570 nm. Cell density for each fiber on retrieval day was expressed as net growth, defined as (OD retrieval day—OD implantation day)/OD implantation day, i.e. the percent change in cell density in the fibers during the 6 days of in vivo experiment. The animals were observed regarding behavior and weight gain throughout the experiment. Blood samples (200 μl) were obtained through the orbital plexus after anesthetization with isofluran just before euthanasia, and analyzed for hematological parameters. […]

A short description of data set [8]: Weight gain and hematological parameters of treated mice. The class given is in vivo, NMRI male mice. The following applies: single dose 760 μg/mouse s.c. As to the method:
In vivo studies. Cells from two ovarian carcinoma patients and the cell line CEM were cultured inside semi-permeable polyvinylidene fluoride fibers and assessed by the hollow fiber assay (Friberg et al., 2005; Jonsson et al., 2000). The fibers were implanted subcutaneously into NMRI male mice (Scanbur, Sollentuna Sweden), which were treated with a single dose (0.76 mg/mouse) of VLX50 subcutaneously, or vehicle only (n=animals/group). Fibers were retrieved after 6 days and cell density evaluated (FIG. 3a) using the MTT (3-[4,5-dimethylthiazol-2-yl]-2,5-diphenyltetrazolium bromide)-assay (Alley et al. 1988). The method is based on the conversion of MTT to blue formazan crystals by living cells. The formazan was extracted by DMSO as previously described (Jonsson et al. 2000), and optical density (OD) read at 570 nm. Cell density for each fiber on retrieval day was expressed as net growth, defined as (OD retrieval day—OD implantation day)/OD implantation day, i.e. the percent change in cell density in the fibers during the 6 days of in vivo experiment. The animals were observed regarding behavior and weight gain throughout the experiment. Blood samples (200 μl) were obtained through the orbital plexus after anesthetization with isofluran just before euthanasia, and analyzed for hematological parameters. Four animals were caged per cage and fed a commercial diet (Lactamin AB, Sweden), water being given ad libitum.
In vivo activity in PHTC cultures of ovarian carcinoma. Activity in vivo was determined in hollow fiber cultures of PHTC from ovarian carcinoma patients subcutaneously implanted in mice (FIG. 3a; n=8 each in test and control groups). […] There was no difference in WBC, RBC, and hemoglobin values (FIG. 3c).

The structures appear in SMILES notation. Where two headings read alike, the source gives them in different places.

Regarding `COCCCNC(=S)N/N=C\c1ccccn1` [VLX50, N1-(3-methoxypropyl)-2-(pyridylmethylidene)-hydrazine-1-carbothioamide], the IC50 in data set [1] is 0.055 to 11.2 µM; in [2] (n=10, 72 h FMCA, read-out: Median IC50), 5.35 µM; in data set [2] (range over n=10 samples, read-out: IC50 Range), 0.67 to 40 µM; in data set [3], 0.28 to 40 µM; in [4] (n=7, 72 h FMCA, read-out: Median IC50) it was 8.23 µM; in data set [4] (range over n=7 samples, read-out: IC50 Range), 0.87 to 40 µM. For the same compound, the IC50 in data set [5] (Homo sapiens, 72 h, n=14, 72 h FMCA, read-out: Median IC50) was less than 5 µM; in [5] (Homo sapiens, range over n=14 samples, read-out: IC50 Range) it was 0.26 to 40 µM; in data set [5] (n=14, 72 h FMCA, read-out: Median IC50), 3.46 µM. For the same compound, in data set [6], the “S/H ratio (ratio between total response rates for solid and hematological samples)” value stood at 0.73. The “PBMC/CLL median IC50 ratio” value in [7] is 7.6. Besides, the “Difference in net growth between treated group and control group” value in the data set with CCRF-CEM cell line was “did not reach statistical significance”. In data set [8], the Hemoglobin values entry is recorded as “no difference”. In addition, the RBC entry in data set [8] is reported as “no difference”. Moreover, the WBC entry in data set [8] is recorded as “no difference”. Moreover, the Platelet counts entry in data set [8] (P<0.05) is reported as “significant decrease”. Moreover, the “Weight gain compared to the control group” value in [8] (P<0.05) is reported as “small but significant reduction”.
